Experimental data as given in patent US11090292B2, “Compositions and methods of use of an inappetance-controlling compound” (Aratana Therapeutics, Inc., priority 2012, dated 2021).

Columns and labels:
cortisol [1] = assay: Example 4: serum cortisol concentration; type: in vivo, Beagle dogs; settings: approximately 0.5 h post treatment, days 1, 4 and 7
Protocol: A controlled, seven-day study was performed to assess the impact of different capromorelin-dosing regimens on the production of IGF-1, GH, and cortisol. The different capromorelin-dosing regimens were also assessed for the impact on food intake and changes in body mass.
[…] were divided into one of three treatment groups, with one negative control group and two active treatment groups. Each of the three treatment groups included three males and three females. The first group received a placebo formulation (i.e., deionized water) twice per day, via oral gavage. The second group received a once-daily dose of the capromorelin composition at a concentration of 3 mg/kg, via oral gavage. The third group received a twice-daily dose of the capromorelin composition at a concentration of 3 mg/kg, via oral gavage.
During the ten day study period, on an at least once-daily basis, each of the dogs was monitored for clinical observations, mortality, moribundity, body mass, acceptability/palatability, and food consumption. Serum samples were taken to measure capromorelin concentration, GH concentration, IGF-1 concentration, and cortisol concentration. Serum samples were taken on days 1, 2, 4, and 7 at −15 minutes (pre-dose), immediately prior to dosing (0 minutes) and 30, 45, 60, 90, 120, 240, 360, and/or 480 minutes post dosing. […]

IGF-1 = assay: Example 5: serum IGF-1; type: in vivo, Beagle dogs; settings: by Day 4, remained elevated on Day 7, Groups 2-4
Protocol: (§1) In order to further refine the dosing regimen that would provide an appropriate blood profile of capromorelin and desired results from the perspective of increased food intake and weight gain, an additional series of experiments were conducted. In these experiments, twenty-four adult (male and female) Beagle dogs weighing approximately 9 to 13 kilograms were randomly divided into four groups. Group 1 received a placebo formulation, without any active compound, two times per day; Group 2 received a composition comprising 3 mg/kg of body weight of capromorelin one time per day; Group 3 received a composition comprising 4.5 mg/kg of body weight of capromorelin one time per day; and Group 4 received a composition comprising 3 mg/kg of body weight of capromorelin two times per day. […]
(§2) In these experiments, the animals were orally administered the flavored formulation at approximately 8:00 AM and, for Group 4 only, again at 6:00 PM. […] Food consumption was calculated and recorded on Days −7 through Day 7. Baseline food consumption was calculated for each individual dog as the average number of grams of food consumed on Days −3, −2, and −1. The study period food consumption was calculated for each individual dog as the average of Days 1 through 7. […]

[2] = Example 9: clinical observations / toxicological responses; type: in vivo; settings: injection 0.75 or 2 mg/kg, oral 2 or 4 mg/kg, once daily
Protocol: During the seven day study period, on an at least once-daily basis, each of the cats was monitored for clinical observations, mortality, moribundity, body mass, acceptability/palatability, and food consumption. Serum samples were taken to measure capromorelin concentration, IGF-1 concentration, and cortisol concentration. Serum samples were taken on days 1 and 4 immediately prior to dosing (0 minutes) and 30, 60, 90, 120, 240, 360, and/or 480 minutes post dosing. Additional serum samples were taken at 8 AM on Day 7 of the study to assess long-term impact of the active treatments.

[3] = Example 4: clinical observations / toxicological responses; type: in vivo; settings: 3 mg/kg once or twice daily, 7 days
Protocol: During the ten day study period, on an at least once-daily basis, each of the dogs was monitored for clinical observations, mortality, moribundity, body mass, acceptability/palatability, and food consumption. Serum samples were taken to measure capromorelin concentration, GH concentration, IGF-1 concentration, and cortisol concentration. Serum samples were taken on days 1, 2, 4, and 7 at −15 minutes (pre-dose), immediately prior to dosing (0 minutes) and 30, 45, 60, 90, 120, 240, 360, and/or 480 minutes post dosing. Additional serum samples were taken at 8 AM on Day 10 of the study to assess long-term impact of the active treatments.

[4] = Example 9: capromorelin concentration in serum; type: in vivo
Protocol: A four-day study was performed to further assess the pharmacokinetics of formulation 8 from Example 3 (i.e., the most “well-accepted” formulation) in cats. Moreover, the administration of formulation 8 was also analyzed to determine if administration of this formulation could induce sustained production of IGF-1 and relatively depressed, mitigated, or lower levels of cortisol. The different capromorelin-dosing regimens were also assessed for the impact on food intake and changes in body mass.
Twenty-four adult cats were divided into one of four treatment groups, with all four groups as active treatment groups. Each of the active treatment groups included 6 cats. The first group received a sterile injection of a capromorelin composition containing a 0.75 mg/kg concentration of capromorelin once per day during the four-day experiment. The second group received a once-daily sterile injection of a capromorelin composition at a concentration of 2 mg/kg. The third group received a once-daily dose of a capromorelin composition at a concentration of 2 mg/kg, via oral gavage. […]
During the seven day study period, on an at least once-daily basis, each of the cats was monitored for clinical observations, mortality, moribundity, body mass, acceptability/palatability, and food consumption. […]

cortisol [5] = assay: Example 5: serum cortisol; type: in vivo, Beagle dogs; settings: Groups 2-4; mitigated by Day 4, further reduced by Day 7
Protocol: as §1, §2

CN1N=C2CCN(C(=O)[C@@H](COCc3ccccc3)NC(=O)C(C)(C)N)C[C@@]2(Cc2ccccc2)C1=O.O=C(O)C(O)C(O)C(=O)O [capromorelin]
cortisol concentrations in the serum relative to deionized water (cortisol [1]): increased | IGF-1 levels in treated animals (IGF-1): sustained increase | toxicological responses [2]: no toxicological responses were noted | toxicological responses [3]: no toxicological responses were noted | levels of capromorelin in the serum ([4]; oral formulations): relatively low levels of capromorelin in the serum | time post administration of peak capromorelin concentration in the serum ([4]; sterile injectable formulation): about 0.5 h | cortisol in the serum (cortisol [5]): initial increase in cortisol in the serum on Day 1
